Reference: PMC8151835, “Phosphinotripeptidic Inhibitors of Leucylaminopeptidases” (International Journal of Molecular Sciences, 2021)
Read-outs that look alike come from different tables or passages of the source.

Assays:
[1] = target: T1, SsLAP (porcine leucine aminopeptidase) (Sus scrofa, UniProt P28839); test: Inhibition of porcine kidney leucine aminopeptidase, L-Leu-p-nitroanilide hydrolysis, spectrophotometric at 405 nm; assay type: biochemical; conditions: for Ki: Dixon method, substrate L-Leu-p-nitroanilide, 37 °C, pH 8.5, mixture of SR and SS isomers
T1 construct: Leucyl aminopeptidase (SsLAP) was isolated from the porcine kidney; from tissue; host or cells: porcine kidney
T1 sequence (P28839 1-519): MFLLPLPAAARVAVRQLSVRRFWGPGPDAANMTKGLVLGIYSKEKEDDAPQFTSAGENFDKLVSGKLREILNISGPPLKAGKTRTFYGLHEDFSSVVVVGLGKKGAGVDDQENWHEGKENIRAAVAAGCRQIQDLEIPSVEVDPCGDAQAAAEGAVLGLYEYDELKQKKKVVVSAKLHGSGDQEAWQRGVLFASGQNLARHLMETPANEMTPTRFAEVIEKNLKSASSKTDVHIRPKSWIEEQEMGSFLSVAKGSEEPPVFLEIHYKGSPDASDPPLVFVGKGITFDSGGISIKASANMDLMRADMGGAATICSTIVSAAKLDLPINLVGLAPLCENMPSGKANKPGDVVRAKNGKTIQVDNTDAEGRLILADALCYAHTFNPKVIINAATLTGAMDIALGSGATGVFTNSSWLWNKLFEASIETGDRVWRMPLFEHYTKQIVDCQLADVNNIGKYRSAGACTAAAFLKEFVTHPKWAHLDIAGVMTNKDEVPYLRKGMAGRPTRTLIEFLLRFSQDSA
Description: (§1) The inhibition type, mechanism, and inhibition constants (Ki) were determined using graphical methods (see Figure 3 and Figure 4 and Tables S1 and S2). The inhibition type was determined by the Lineweaver-Burk plot based on the results of the inhibitory effect of the compounds on the hydrolytic activity of L-Leu-p-nitroanilide. […] It should be remembered that inhibitor activity was appointed for the racemic mixtures. All investigated compound 1–9 contains only S isomer in the P2 position, whereas in the P1 position, both R and S isomers were possible. Comparing the obtained activities of the investigated compounds 1–9 toward mammalian and plant aminopeptidases allows us to make some general observations. […] Additionally, SsLAP has better tolerance for the residue in the P1 position, whereas HvLAP prefers hPhe residue in this position.
Leucyl aminopeptidase (SsLAP) was isolated from the porcine kidney modified method described by Spackman and Ledeme. […] KM values correlate well with those given in the works 0.77 mM [58, 59]. The purity of the enzyme was confirmed by electrophoresis.
The enzymatic reaction in the presence of SsLAP was carried out at 37 °C in 7.5 mM TEA-HCl buffer (pH 8.5), containing 5 mM NaCl. The progress of the reaction was monitored spectrophotometrically (UV-VIS Spectrophotometer Cintra 303, GBC Scientific Equipment Ltd., Victoria, Australia) at a wavelength of 405 nm against a control sample containing no enzyme. The attempting mixture contained: Solution of the synthetic substrate L-Leu-p-nitroanilide in DMSO (substrate concentration: 1.5 to 0.2 mM—final concentration), 7.5 mM TEA-HCl buffer (pH 8.5), containing 5 mM NaCl, the solution of the potential inhibitor in reaction buffer (concentration of compound depending on the braking force), and enzyme (0.005 mg of the sample).
(§2) Kinetic constants KM, Vmax, and KI and type of inhibition was determined by methods Lineweaver-Burk, Dixon, Hanes-Woolf, and method half-inhibitory concentration. In the calculation, linearization methods used weighted regression. The values (Ki) given in the tables are the values calculated by the Dixon method. The Ki values calculated with all the above-mentioned methods close to each other. All measurements were made in three-fold repetitions. The graphs show the average values of the three measurements and Sb.

[2] = target: HvLAP (aminopeptidase from barley seeds); test: Inhibition of barley seed aminopeptidase, L-Leu-p-nitroanilide hydrolysis, spectrophotometric at 405 nm; assay type: biochemical, Hordeum vulgare; conditions: Dixon method; substrate L-Leu-p-nitroanilide; 37 °C, pH 7.5; mixture of SR and SS isomers
Description: as §1
The aminopeptidase from barley seeds (HvLAP) was isolated and purified according to the procedure described by Oszywa. […] The purity of the enzyme was confirmed by electrophoresis.
The enzymatic reaction in the presence of aminopeptidase from barley seeds (HvLAP) was carried out at 37 °C in 50 mM Tris-HCl buffer (pH 7.5), containing 50 mM NaCl, and 10 mM 2-mercaptoethanol. The progress of the reaction was monitored spectrophotometrically (UV-VIS Spectrophotometer Cintra 303, GBC Scientific Equipment Ltd., Victoria, Australia) at a wavelength of 405 nm against a control sample containing no enzyme. The attempting mixture contained: Solution of the synthetic substrate L-Leu-p-nitroanilide in DMSO (substrate concentration: 1.5 to 0.2 mM—final concentration), 50 mM Tris-HCl buffer (pH 7.5), containing 50 mM NaCl, and 10 mM 2-mercaptoethanol, the solution of the potential inhibitor in reaction buffer (concentration of compound depending on the braking force), and enzyme (0.028 mg of the sample).
as §2

[3] = target: T1, SsLAP (porcine leucine aminopeptidase); parameters: method as in PMID 2568128, PMID 7126535; conditions: read-out: KM given in the works; cited from earlier work
[4] = tested on: HvLAP (aminopeptidase from barley seeds); parameters: method as in PMID 23434924, doi:10.1007/s11738-015-1789-8; conditions: read-out: KM of the isolated enzyme on the synthetic substrate; cited from earlier work

Compound	Ki [1] [µM]	Ki [2] [µM]	melting point	inhibits SsLAP stronger than HvLAP (selectivity) ([1]; SsLAP over HvLAP) [times]	Km ([1]; SsLAP isolated from porcine kidney, read-out: KM of the isolated enzyme on the synthetic substrate) [µM]	Km [3] [µM]	Km [4] [µM]
CSCC[C@H](N)C(=O)NC(CCc1ccccc1)P(=O)(O)CCC(=O)O (stereo partly shown) [Compound 4]	229 ± 40	228 ± 10	180 to 185 °C	–	–	–	–
COC(=O)CCP(=O)(O)C(CC(C)C)NC(=O)[C@@H](N)Cc1ccc(C(=O)c2ccccc2)cc1 (stereo partly drawn) [Compound 9, Methyl 3-[(1-((S)-2-amino-3-(4-benzoylphenyl)propanamido)-3-methylbutyl)phosphinyl]-propanoate]	507 ± 31	797 ± 76	124 to 126 °C	–	–	–	–
COC(=O)CCP(=O)(O)C(CCc1ccccc1)NC(=O)[C@@H](N)Cc1ccc(C(=O)c2ccccc2)cc1 (stereo partly drawn) [Compound 8, Methyl 3-[(1-((S)-2-amino-3-(4-benzoylphenyl)propanamido)-3-phenylpropyl)phosphinyl]-propanoate]	95 ± 9	159 ± 25	134 to 140 °C (dec.)	–	–	–	–
COC(=O)CCP(=O)(O)C(CC(C)C)NC(=O)[C@@H](N)Cc1ccc(-c2ccccc2)cc1 (stereo partly shown) [Compound 7]	130 ± 14	1300 ± 84	150 to 152 °C	~10	–	–	–
COC(=O)CCP(=O)(O)C(CCc1ccccc1)NC(=O)[C@@H](N)CCSC (stereo partly drawn) [Compound 1, Methyl 3-[(1-((S)-2-amino-4-(methylthio)butanamido)-3-phenylpropyl)phosphinyl]propanoate]	532 ± 46	38 ± 9	161 to 164 °C	–	–	–	–
CSCC[C@H](N)C(=O)NC(CC(C)C)P(=O)(O)CCC(=O)O (stereo partly drawn) [Compound 5, 3-[(1-((S)-2-Amino-4-(methylthio)butanamido)-3-methylbutyl)phosphinyl]propanoic acid]	3620 ± 433	1040 ± 102	218 to 222 °C	–	–	–	–
COC(=O)CCP(=O)(O)C(CCc1ccccc1)NC(=O)[C@@H](N)Cc1ccc(-c2ccccc2)cc1 (stereo partly drawn) [Compound 6, Methyl 3-[(1-((S)-3-([1,1′-biphenyl]-4-yl)-2-aminopropanamido)-3-phenylpropyl)phosphinyl]-propanoate]	175 ± 3	878 ± 70	126 to 128 °C	–	–	–	–
COC(=O)CCP(=O)(O)C(CC(C)C)NC(=O)[C@@H](N)CCSC (stereo partly drawn) [Compound 2, Methyl 3-[(1-((S)-2-amino-4-(methylthio)butanamido)-3-methylbutyl)phosphinyl]propanoate]	1090 ± 73	649 ± 43	183 to 184 °C	–	–	–	–
COC(=O)CCP(=O)(O)C(CC(C)C)NC(=O)[C@@H](N)CCO (stereo partly shown) [Compound 3]	14 ± 1	121 ± 19	174 to 176 °C	–	–	–	–
CC(C)C[C@H](N)C(=O)Nc1ccc([N+](=O)[O-])cc1 [L-Leu-pNA, L-leucine-p-nitroanilide]	–	–	–	–	860	770	550
